Measured values from patent US6395260B1, “Topical cosmetic compositions comprising benzaldoximes” (Haarmann & Reimer GmbH, priority 1999, dated 2002).

Structure (SMILES) | melting point
ON=Cc1cc(O)c(O)c(O)c1 [Test compound 2, 3,4,5-trihydroxybenzaldoxime] | 177 °C (dec.)
CCON=Cc1ccc(OC)c(O)c1 [Test compound 3, 3-hydroxy-4-methoxybenzaldehyde O-ethyloxime] | 61.4 °C
ON=Cc1ccc(O)c(O)c1 [Test compound 5, 3,4-dihydroxybenzaldoxime] | 143 °C (dec.)
Cc1ccc(CON=Cc2ccc(O)c(O)c2)cc1 [Test compound 8, 3,4-dihydroxybenzaldehyde O-(4-methylbenzyl)-oxime] | 85 to 86 °C
CCON=Cc1ccc(O)c(O)c1 [Test compound 11, 3,4-dihydroxybenzaldehyde O-ethyloxime] | 23 °C
CCON=Cc1ccc(O)c(OC)c1 [Test compound 7, 4-hydroxy-3-methoxybenzaldehyde O-ethyloxime] | 31.7 °C

Second part, the molecule after the results:

melting point | Structure (SMILES)
189 °C (dec.) | CCOc1cc(C=NO)ccc1O [Test compound 9, 3-ethoxy-4-hydroxybenzaldoxime]
118.2 °C | COc1cc(C=NO)ccc1O [Test compound 10, 4-hydroxy-3-methoxybenzaldoxime]
43 °C | CCON=Cc1ccc(O)c(OCC)c1 [Test compound 4, 3-ethoxy-4-hydroxybenzaldehyde O-ethyloxime]
142.4 °C | COc1ccc(C=NO)cc1O [Test compound 6, 3-hydroxy-4-methoxybenzaldoxime]
